Tests used:
[1] = test system: A549; test: Stability in the presence of human cell lines (A549); type: in vitro ADME; conditions: A549, Lung; 24 hours
Description: (§1) Residual activity was calculated as follows: […]

[2] = test system: HT-1376; test: Stability in the presence of human cell lines (HT-1376); type: in vitro ADME; conditions: HT-1376, Bladder; 24 hours
Description: as §1

[3] = test system: U87MG; test: Stability in the presence of human cell lines (U87MG); type: in vitro ADME; conditions: Brain, 24 hours
Description: as §1

[4] = test system: MDA-MB-436; test: Stability in the presence of human cell lines (MDA-MB-436); type: in vitro ADME; conditions: MDA-MB-436, Breast; 24 hours
Description: as §1

[5] = test system: U2-OS; test: Stability in the presence of human cell lines (U2-OS); type: in vitro ADME; conditions: Sarcoma (Bone), 24 hours
Description: as §1

[6] = test system: 786-O; test: Stability in the presence of human cell lines (786-O); type: in vitro ADME; conditions: Kidney, 24 hours
Description: as §1

[7] = test system: AsPC-1; test: Stability in the presence of human cell lines (AsPC-1); type: in vitro ADME; conditions: AsPC-1, Pancreas; 24 hours
Description: as §1

[8] = test system: HT-29 cells; test: Stability in the presence of tumor cells (HT-29), FAP IC50 of supernatants; type: in vitro ADME, human
Description: The stability of exemplary compounds was further assessed in the presence of a variety of human cell lines from different tissue origins. […] Compounds were diluted in DMEM without phenol red (Biochrom, #F0475) including 2 mM L-glutamine. 400 μL of a 10 μM solution of the test compound was incubated for 24 hours at 37° C. and 5% CO2 in the presence of cells as well as in control wells (without cells) of the same 24-well plate. IC50/pIC50 determination of the supernatants was performed as described above.

[9] = test system: K-562; test: Stability in the presence of human cell lines (K-562); type: in vitro ADME; conditions: K-562, Blood; 24 hours
Description: as §1

[10] = target: HEK-FAP cells (HEK293 cells engineered to express the human FAP) (Homo sapiens (Human), UniProt Q12884); test: LigandTracer assay with 111In-labeled compounds; type: binding; conditions: 111In-labeled compound
Description: HEK293 cells (human embryonic kidney cells) were engineered to express the human FAP. […] Cell concentrations were adjusted to 3×10^5 mL^−1, and 3.000 μL of the suspension was dispensed into a poly-lysine-coated, clear cell dish (10 cm). Approximately 24 hours after re-seeding, the medium was replaced by assay medium (Ham's medium with 20 mM HEPES) containing 1% FCS. The dish was placed in the LigandTracer® device and a baseline measurement was obtained using the LigandTracer® Control software (version 2.4). […] To determine the dissociation rate (kd) the cells were washed and subsequently incubated with fresh assay medium for several hours.

[11] = test system: WI-38; test: Stability in the presence of human cell lines (WI-38); type: in vitro ADME; conditions: WI-38, Fibroblast (Lung); 24 hours
Description: as §1

[12] = target: Human recombinant FAP (Homo sapiens (Human), UniProt Q12884); test: Surface plasmon resonance assay (Biacore T200, SCK); type: binding; conditions: SPR dissociation half-life
Chain of Human recombinant FAP (Q12884 whole entry): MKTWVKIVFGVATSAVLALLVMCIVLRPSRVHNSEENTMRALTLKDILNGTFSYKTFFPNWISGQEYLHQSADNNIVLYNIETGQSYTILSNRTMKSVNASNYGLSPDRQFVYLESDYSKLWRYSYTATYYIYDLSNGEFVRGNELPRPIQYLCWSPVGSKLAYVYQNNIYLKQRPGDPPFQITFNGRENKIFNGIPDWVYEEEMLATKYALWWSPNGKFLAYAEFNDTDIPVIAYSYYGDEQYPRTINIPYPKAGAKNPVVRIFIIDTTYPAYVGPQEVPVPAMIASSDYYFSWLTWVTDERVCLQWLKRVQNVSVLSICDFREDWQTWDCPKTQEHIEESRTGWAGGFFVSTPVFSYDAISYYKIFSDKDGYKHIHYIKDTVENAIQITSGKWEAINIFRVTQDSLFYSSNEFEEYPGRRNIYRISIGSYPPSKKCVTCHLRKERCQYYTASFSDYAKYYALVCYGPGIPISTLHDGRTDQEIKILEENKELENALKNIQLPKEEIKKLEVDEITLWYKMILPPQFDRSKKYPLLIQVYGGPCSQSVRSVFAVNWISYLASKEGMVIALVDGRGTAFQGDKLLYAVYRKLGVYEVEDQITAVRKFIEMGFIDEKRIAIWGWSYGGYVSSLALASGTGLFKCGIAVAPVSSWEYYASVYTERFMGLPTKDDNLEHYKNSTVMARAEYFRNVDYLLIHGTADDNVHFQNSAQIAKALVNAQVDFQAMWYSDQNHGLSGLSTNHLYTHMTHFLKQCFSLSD
Procedure, shortened: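 Anti-FAP antibody amine-coupled to CM5 chip (7000 RU), human recombinant FAP captured at 20 μg/mL; compounds run in single-cycle kinetics at 25° C in HBST with 0.1% DMSO, top concentration 500 nM. Reference-cell and buffer-run drift subtraction; kon, koff, KD, t1/2 from 1:1 Langmuir fit, reported as pKD.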

[13] = test system: WM-266-4; test: Stability in the presence of human cell lines (WM-266-4); type: in vitro ADME; conditions: WM-266-4, Skin; 24 hours
Description: as §1

[14] = test system: C4-2; test: Stability in the presence of human cell lines (C4-2); type: in vitro ADME; conditions: C4-2, Prostate; 24 hours
Description: as §1

[15] = test system: HEC-265; test: Stability in the presence of human cell lines (HEC-265); type: in vitro ADME; conditions: HEC-265, Endometrium; 24 hours
Description: as §1

[16] = test system: SCOV-3; conditions: SCOV-3, Ovarian; 24 hours
Description: Cells were cultured in McCoys's 5A modified medium (Biochrom, #F1015) including 10% fetal bovine serum (FBS), 2 mM L-glutamine, 100 U/ml penicillin and 100 μg/mL streptomycin (growth medium). […] 1 mL of the cell suspension were seeded in 24-well plates and incubated overnight at 37° C. and 5% CO2. The next day, cells were washed twice and growth medium was exchanged against DMEM without phenol red (Biochrom, #F0475) including 2 mM L-glutamine. Test compound was diluted in DMEM without phenol red (Biochrom, #F0475) including 2 mM L-glutamine. 400 μL of a 10 μM solution of the test compound was incubated for 24 hours at 37° C. and 5% CO2 in the presence of cells as well as in control wells (without cells) of the same 24-well plate.
25 μL of a 30 μM substrate solution, diluted in assay buffer, was added. All solutions were equilibrated at 37° C. prior to use. […] RFU/sec was calculated by SoftMax Pro software and plotted against test compound concentration. Four parameter logistic (4PL) curve fitting and IC50/pIC50 calculations were performed using GraphPad Prism 9.1 software. Residual activity was calculated as follows: […]
The stability of exemplary compounds was further assessed in the presence of a variety of human cell lines from different tissue origins. […] Residual activity was calculated as follows: […]

N#C[C@@H]1CC(F)(F)CN1C(=O)CNC(=O)c1ccnc2ccc(OCCCN3CCN(C(=O)CN4CCN(CC(=O)O)CCN(CC(=O)O)CCN(CC(=O)O)CC4)CC3)cc12 [Compound 3BP-2929, reference compound]
Residual Stability (%) [1]: 20% | Residual Stability (%) [2]: 10% | Residual Stability (%) [3]: 45% | Residual Stability (%) [4]: 17% | Residual Stability (%) [5]: 30% | Residual Stability (%) [6]: 85% | Residual Stability (%) [7]: 35% | pIC50 (incubation in cell medium w/o HT-29) ([8]; 10 μM compound, 24 hours at 37° C. in control wells without cells, supernatant tested on recombinant human FAP): 8.7 | pIC50 (incubation in the presence of HT-29 cells) ([8]; 10 μM compound, 24 hours at 37° C. with HT-29 cells, supernatant tested on recombinant human FAP): 7.9 | Residual Stability (%) ([8]; HT-29, Intestine, 24 hours): 14% | stability in the presence of HT-29 cells (in words) ([8]; HT-29 cells): unstable | Residual activity after incubation with HT-29 cells for 24 hours (%) ([8]; HT-29 cells, 24 hours): 16% | Residual Stability (%) [9]: 70% | HL (half-life) [10]: 4.6 ± 2.37 h | Residual Stability (%) [11]: 26% | HL [min] (Biacore) [12]: 85 min | Residual Stability (%) [13]: 70% | Residual Stability (%) [14]: 19% | Residual Stability (%) [15]: 65% | Residual Stability (%) [16]: 4%
